According to publication PMC4239610, “A Peptide Derived from G0/G1 Switch Gene 2 Acts as Noncompetitive Inhibitor of Adipose Triglyceride Lipase” (The Journal of Biological Chemistry, 2014):
pIC50: −log10 of the molar value. Each block holds one molecule with its values, some of them ahead of it.

Experiments:
[1] = tested on: TG hydrolase activity of WAT lysates from WT animals; experiment: TG hydrolase activity of WAT lysates of overnight fasted WT mice; assay type: biochemical, mouse
Method: (§1) Adipose tissue samples from overnight fasted wild-type and Atgl-KO mice were washed in PBS (137 mM NaCl, 2.7 mM KCl, 10 mM Na2HPO4, 2 mM KH2PO4) containing 1 mM EDTA and homogenized on ice in sucrose solution (see above) using an Ultra Turrax (IKA, Staufen, Germany).
FIGURE 4.

[2] = cited from earlier work
Excerpt: Adipose triglyceride lipase (ATGL) hydrolyzes TGs into diacylglycerols and FAs and is required for efficient intracellular lipolysis ([7]). Global inactivation of ATGL activity leads to massive TG accumulation in all tissues, including the heart of Atgl knock-out mice ([8]). Accordingly, patients with ATGL deficiency suffer from cardiac and skeletal muscle myopathy and require heart transplants at a relatively young age ([9]). However, genetic and small molecule-mediated inactivation of ATGL is also associated with beneficial effects on plasma lipid parameters and insulin sensitivity; Atgl-KO ... || Genetic disruption of Atgl results in severe heart defects due to massive TG accumulation in cardiac muscle ([8], [55]). Thus, the application of a synthetic, competitive ATGL inhibitor, such as Atglistatin, as a therapeutic tool appears limited. […] Th ...

ATGL = details: cited from earlier work
Excerpt: Extensive research on the physiological role of ATGL has identified complex regulatory mechanisms for its activity on the transcriptional and post-translational level ([12], [13]). Direct protein-protein interaction of ATGL with the protein comparative gene identification 58 (CGI-58) increases ATGL activity up to 20-fold ([14]). Inhibition of ATGL due to direct interaction with the small, 103-amino acid protein G0/G1 switch gene 2 (G0S2) was discovered in 2010 and confirmed using human and murine proteins ([15][–][21]). The highest G0S2 expression is found in adipose tissues, but it is also pr ... || Activation of ATGL by CGI-58 is considered as fasting response upon β-adrenergic stimulation and phosphorylation of PKA ([12]). Recent studies have strengthened the role of G0S2 as the so-called master regulator of basal and stimulated lipolysis ([27]). mRNA levels of G0S2 respond strongly to hormonal stimuli, yet the dose-dependent inhibition of ATGL by G0S2 itself is reported to be independent of phosphorylation events ([18], [20], [21], [28], [29]). Thus, regulation of the expression levels of G0S2, and consequently the protein concentration, resembles a potent mean to regulate lipid mobili ... || Next, we investigated the specificity of the peptide hGW2052. ATGL and HSL together account for more than 95% of intracellular TG hydrolase activity in white adipose tissue (WAT) ([48]). For both enzymes, small molecule inhibitors are available. […] WAT lysates of WT and Atgl-KO mice were tested for TG hydrolase activity in the presence of Atglistatin, Hi 76–0079, and hGW2052. Addition of the ATGL inhibitors hGW2052 or Atglistatin redu ... || (+ 3 further places)

[3] = tested on: WAT TG hydrolase activity derived from Atgl-KO mice; experiment: TG hydrolase activity of WAT lysates of Atgl-KO mice; assay type: biochemical, mouse; details: overnight fasted, 1.4 μM hGW2052, 40 μM Atglistatin, Fig. 4A
Method: as §1
FIGURE 4.

HSL = details: ref [10], [48], [49]; cited from earlier work
Method: Next, we investigated the specificity of the peptide hGW2052. ATGL and HSL together account for more than 95% of intracellular TG hydrolase activity in white adipose tissue (WAT) ([48]). For both enzymes, small molecule inhibitors are available. […] WAT lysates of WT and Atgl-KO mice were tested for TG hydrolase activity in the presence of Atglistatin, Hi 76–0079, and hGW2052. Addition of the ATGL inhibitors hGW2052 or Atglistatin redu ... || To evaluate the specificity of the inhibitory peptide for ATGL, we analyzed the effect of hGW2052 on the activities of phospholipases, intracellular lipases, and extracellular lipases. ATGL belongs to the patatin domain containing family of proteins (PNPLA). […] Although PNPLA family members show high sequence conservation within their common patatin domain, no effects on lysophospholipase activities of PNPLA6 or PNPLA7 could b ...

mATGL [4] = experiment: TG hydrolase activity, E. coli expressed mATGL, CGI-58 activated, hG0S2 truncations (Fig. 1C-E); assay type: biochemical, mouse; details: mATGL E. coli extract (50 μg), 2.5 μg purified mCGI-58, 30 μg lysate of E. coli expressing hG0S2 variant, [3H]triolein, triplicates
Method: (§2) Protein concentrations were determined as described below.
(§3) FIGURE 1. Minimal sequence requirements of human G0S2 for ATGL inhibition. A, graphical representation of full-length and shortened versions of hG0S2, those capable of inhibiting ATGL activity are illustrated in black. The largely hydrophobic sequence stretch from Val-28 to Met-42 is depicted in light gray. B–E, activity assays were performed in the presence of CGI-58 as indicated by an asterisk (ATGL*). G0S2 and variants thereof were expressed in E. coli and added as cell lysates. Overexpressed mATGL from E. coli lysates was used for all assays with the exception of the assay shown in B. B, inhibition of TG hydrolase activity of mATGL containing COS-7 cell extracts by WT and C-terminally truncated hG0S2 variants. C, inhibition of TG hydrolase activity of mATGL by WT and C-terminally truncated hG0S2 variants. D, inhibition of TG hydrolase activity of mATGL by WT hG0S2 and variants with N-terminal deletions. E, effect of different N- and C-terminal truncations in hG0S2 on mATGL activity. The fusion tag smt3 is shown as control.

mATGL [5] = experiment: TG hydrolase activity, COS-7 cell extracts containing mATGL, CGI-58 activated (Fig. 1B); assay type: biochemical, mouse; details: COS-7 cell extract with mATGL, hG0S2 variants as E. coli cell lysates (30 μg), [3H]triolein substrate, triplicates
Method: as §2
Cells were harvested 48 h after transfection. […] Protein concentrations were determined as described below.
as §3

[6] = single administration to mice, ref [10]

- reduction of TG hydrolase activity of WAT lysates ([1]; 40 μM Atglistatin, Fig. 4A): 49%
Molecule: CN(C)C(=O)Nc1cccc(-c2ccc(N(C)C)cc2)c1 [Atglistatin]
- plasma FA and TG concentrations ([2]; WT mice, ref [8], [10]): reduced plasma FA and TG concentrations
- TG accumulation in tissues [2, 6]: TG accumulation in liver but not the heart
- tissue accumulation of the inhibitor [2, 6]: accumulation of the inhibitor in liver and adipose tissues
- IC50 for ATGL (in words) (ATGL; Atglistatin elsewhere ref [10]): low micromolar range
- dependence of ATGL inhibition on CGI-58 (ATGL; ref [10], [13]): independent of the presence of CGI-58
- mode of ATGL inhibition (ATGL; ref [10], [13]): inhibits ATGL in a competitive manner
- specificity of inhibition (in words), ATGL (ATGL; ref [10], [48], [49]): act as specific inhibitors for ATGL and HSL, respectively
- inhibition of WAT TG hydrolase activity, Atgl-KO (result in words) [3]: Neither hGW2052 nor Atglistatin inhibited WAT TG hydrolase activity derived from Atgl-KO mice

Molecule: CN(C(=O)n1cncn1)c1ccccc1 [Hi 76-0079, N-methyl-phenyl carbamoyl triazole]
- reduction of TG hydrolase activity of WAT lysates ([1]; 25 μM Hi 76-0079, Fig. 4A): 67%
- specificity of inhibition (in words), HSL (HSL): act as specific inhibitors for ATGL and HSL, respectively

Molecule: CCCCCCCC/C=C\CCCCCCCC(=O)SCCNC(=O)CCNC(=O)[C@H](O)C(C)(C)COP(=O)(O)OP(=O)(O)OC[C@H]1O[C@@H](n2cnc3c(N)ncnc32)[C@H](O)[C@@H]1OP(=O)(O)O [oleoyl-CoA]
- pIC50 (ATGL; ref [13]): 4.48

Molecule: hG0S2 Gly-30–Ala-52: N- and C-terminally truncated hG0S2, Gly-30–Ala-52 (GSVLALFGVVLGLMETVCSPFTA; UniProt P27469 30-52, looked up, fragment)
- inhibition of TG hydrolase activity (result in words) (mATGL [4]): had lost all inhibitory activity

Molecule: hG0S2 Leu-10–Ala-52: N- and C-terminally truncated hG0S2, Leu-10–Ala-52 (LAKEMMAQKRKGKMVKLYVLGSVLALFGVVLGLMETVCSPFTA; UniProt P27469 10-52, looked up, fragment)
- inhibition of TG hydrolase activity (result in words) (mATGL [4]): fully retained their activity to inhibit ATGL

Molecule: hG0S2 Lys-20–Met-43: N- and C-terminally truncated hG0S2, Lys-20–Met-43 (KGKMVKLYVLGSVLALFGVVLGLM; UniProt P27469 20-43, looked up, fragment)
- inhibition of TG hydrolase activity (result in words) (mATGL [4]): neither hG0S2 Tyr-27–Ala-52 nor hG0S2 Lys-20–Met-43 exhibited full inhibitory capacity
- inhibition of TG hydrolase activity (result in words) (mATGL [4]; listed as Lys-20–Met-43): did not result in G0S2 variants that were able to inhibit ATGL efficiently

Molecule: hG0S2 truncated at residue Leu-40: hG0S2 truncated at residue Leu-40 (C-terminal truncation) (METVQELIPLAKEMMAQKRKGKMVKLYVLGSVLALFGVVL; UniProt P27469 1-40, looked up, fragment)
- inhibition of TG hydrolase activity (result in words) (mATGL [5]): Inhibition was significantly reduced

Molecule: hG0S2_1–43: C-terminally truncated hG0S2 variant Met-1–Met-43 (METVQELIPLAKEMMAQKRKGKMVKLYVLGSVLALFGVVLGLM; UniProt P27469 1-43, looked up, fragment)
- inhibition of TG hydrolase activity (result in words) (mATGL [4]): still exerts the full inhibitory effect on ATGL
- inhibition of TG hydrolase activity (result in words) (mATGL [4]; listed as Met-1–Met-43): fully able to inhibit ATGL
